# Test results reported in patent publication USRE38425E1, “Semicarbazones having CNS activity and pharmaceutical preparations containing same” (University of Saskatchewan Technologies, Inc., priority 1995, dated 2004).
# Key:
# [1] = in vivo; conditions: rat, ip
# [2] = test system: rats; experiment: scPTZ screen after intraperitoneal administration to rats; type: in vivo; conditions: for protection in the scPTZ screen, rats protected: intraperitoneal administration to rats
# [3] = test system: rats; conditions: oral administration to rats; examined ¼-24 h; data taken from reference 1; cited from earlier work
# [4] = test system: mice; experiment: subcutaneous picrotoxin test; type: in vivo
# Text: (§1) Compound 4b was also examined for protective effects after subcutaneous administration of strychnine. […] Two animals per dose were used except in the bicuculline and picrotoxin tests for 4b in which cases, 8 or 16 animals per dose were employed.
# [5] = test system: epileptic chicken; experiment: epileptic chicken model (intermittent photic stimulation); type: in vivo; conditions: Gallus gallus; convulsions induced by intermittent photic stimulation
# Text: Two series of compounds were examined with the aim of observing whether oxygen or sulfur is a preferable spacer atom between the two aryl rings and also to compare the ED50 figures with those obtained in the rat oral and mouse intraperitoneal screens.
# [6] = test system: rats; conditions: rat, in vivo, ip
# [7] = test system: mice; experiment: MES screen after intraperitoneal injection in mice; type: in vivo; conditions: time t (h) per compound as in the table
# [8] = test system: kindled rat; experiment: kindled rat test (corneal kindled rat screen); type: in vivo, rats; conditions: Rattus norvegicus; read-out: ED50 (dose required to reduce seizures from stage 5 to stage 3 or less)
# Text: Particularly preferred compounds according to the present invention are 4-(4′-fluorophenoxy)benzaldehyde semicarbazone and 4-(thiophenoxy)benzaldehyde semicarbazone. […] Incidentally, the kindled rat screen is described by R. J. Racine in “Modification of Seizure Activity by Electrical Stimulation. II. Motor Seizure”, Electroencephalogr.Clin.Neurophysiol., 1972, 32, 281-294, and by G. Skeen et al. In “Development of Kindled Seizures Following Electrical Stimulation via the Cornea”, Soc.Neurosci., 1990, 16(1), 307; the disclosures of which are incorporated herein by reference.
# The kindled rat test was undertaken by reported procedures (as indicated above). Compound 4b was administered orally and the animals challenged with electrical stimuli 2h later. The ED50 is the dose required to reduce seizures from stage 5 to stage 3 or less and these stages are described as follows namely stage 1 is mouth and facial clonus, stage 2 is stage 1 plus head nodding, stage 3 is stage 2 plus forelimb clonus, stage 4 is stage 3 plus rearing and stage 5 is stage 4 plus repeated rearing and falling.
# [9] = test system: mice; experiment: subcutaneous strychnine test; type: in vivo; conditions: dose range of 13.5-108 mg/kg
# Text: as §1
# [10] = test system: rats; experiment: MES screen after intraperitoneal injection into rats; type: in vivo; conditions: Rattus norvegicus, ip, 4 h
# [11] = in vivo; conditions: rat, po
# Procedure: (§2) Initially doses of 50 mg/kg of the semicarbazones were administered.
# [12] = test system: rats; experiment: neurotoxicity screen after oral administration to rats; conditions: oral dosing of rats; 500 mg/kg
# Procedure: as §2
# [13] = test system: mice; experiment: subcutaneous bicuculline test; type: in vivo
# Text: as §1
# [14] = test system: mice; conditions: intraperitoneal injection in mice; time t (h) per compound as in the table
# [15] = test system: mice; experiment: timed intravenous pentylenetetrazole test; type: in vivo; conditions: for quantity of pentylenetetrazole administered (SE) to clonus / quantity of pentylenetetrazole administered (SE) to first twitch: mice i.p.
# Procedure: The times from the commencement-of the infusion until the appearances of the first twitch and also the onset of clonus were recorded for the test and control animals. […] Ten animals were used as controls and for each dose administered except for the 13 mg/kg dose of 4b in which case 9 animals were employed.
# [16] = in vivo; conditions: mouse, ip
# [17] = test system: rats; experiment: MES screen after oral administration to rats
# Procedure: The majority of the compounds were examined for oral activity in rats. Initially doses of 50 mg/kg of the semicarbazones were administered.
# Evaluation of most of the semicarbazones and analogs in the MES and neurotoxicity tests after oral administration to rats was performed.
# [18] = test system: rat livers (liver microsomal system); experiment: effect of chronic oral administration on rat livers; type: in vivo, rats; conditions: 100 mg/kg orally daily for three days; p>0.05
# Procedure: Further bioevaluations of compound 4b were undertaken.
# Rats were administered 100 mg/kg of 4b daily for 3 days. The livers were removed, weighed and the effect of 4b on the liver microsomal system were compared to control animals which received only the vehicle (sonicated 0.5% methylcellulose).^21-23
# [19] = various doses (5g 12-96 mg/kg), given 1 h (4b) or 0.5 h (5g) before
# [20] = TD50 dose (4b 108 mg/kg, 5g 95 mg/kg)
# [21] = approximate MES ED50 dose (4b 13 mg/kg, 5g 15 mg/kg)
# [22] = oral administration to rats, dose 50 mg/kg, 0.25 h
# [23] = oral administration to rats, dose 50 mg/kg, 0.5 h
# [24] = oral administration to rats, dose 50 mg/kg, 1 h
# [25] = oral administration to rats, dose 50 mg/kg, 2 h
# [26] = oral administration to rats, dose 50 mg/kg, 4 h
structure (smiles),measurement,setting,value
"NC(=O)NN=Cc1ccc(Oc2ccc(F)cc2)cc1 [Compound 4b, 4-(4′-fluorophenoxy)benzaldehyde semicarbazone]",TD50 at 4 h,[1],80.1 mg/kg
same,"protection in the scPTZ screen, rats protected",[2]; 125 mg/kg,0/2
same,"protection in the scPTZ screen, rats protected",[2]; 250 mg/kg,1/10
same,protection in the scPTZ screen,"[2]; rats, dose of 125 mg/kg",did not afford protection
same,rats protected in the scPTZ screen,"[2]; rats, dose of 250 mg/kg",10%
same,neurotoxicity screen TD50,[3],>500 mg/kg
same,protection in the subcutaneous picrotoxin test (animals protected),[4]; 27 mg/kg,1/8
same,protection in the subcutaneous picrotoxin test (animals protected),[4]; 108 mg/kg,5/16
same,protection in the subcutaneous picrotoxin test (animals protected),[4]; 216 mg/kg,2/8
same,protection against convulsions induced by subcutaneous picrotoxin,[4]; [19],partial protection
same,ED50,[5],1.5 mg/kg
same,slope (SE) of the TD50,[6],17.02(6.41)
same,ED50,"[7]; Mus musculus, ip, read-out: MES screen ED50 (mg/kg), intraperitoneal injection in mice",15 to 25 mg/kg
same,MES screen ED50,[7]; intraperitoneal injection in mice,12.86 mg/kg
same,ED50,[8],3.93 mg/kg
same,protection in the subcutaneous strychnine test,[9],no protection
same,ED50,[10],2.37 mg/kg
same,TD50,[11],> 500 mg/kg
same,neurotoxicity at the maximum dose utilized,[12],absence of neurotoxicity
same,number of animals protected in the subcutaneous bicuculline test,[13]; 54 mg/kg,0/8
same,number of animals protected in the subcutaneous bicuculline test,[13]; 108 mg/kg,3/8
same,number of animals protected in the subcutaneous bicuculline test,[13]; 216 mg/kg,3/8
same,protection against convulsions induced by subcutaneous bicuculline,[13]; [19],partial protection
same,acPTZ screen ED50,[14],>54 mg/kg
same,quantity of pentylenetetrazole administered (SE) to clonus,[15]; [20],42.1(1.4) mg/kg
same,quantity of pentylenetetrazole administered (SE) to first twitch,[15]; [20],32.6(0.8) mg/kg
same,quantity of pentylenetetrazole administered (SE) to clonus,[15]; [21],37.6(1.5) mg/kg
same,quantity of pentylenetetrazole administered (SE) to first twitch,[15]; [21],32.3(1.4) mg/kg
same,effect on time to clonus,"[15]; mice, dose of 108 mg/kg",increased the time to clonus
same,proconvulsant properties,"[15]; mice, intraperitoneal doses = MES ED50 and TD50 figures, pentylenetetrazole infused after 1 h",Neither compound possessed this undesirable feature
same,TD50,[16],108 mg/kg
same,ED50,"[17]; Rattus norvegicus, po, read-out: MES screen ED50 (mg/kg), oral administration to rats, time t (h) per compound as in the table",1.59 mg/kg
same,MES screen 0.25 h: number of rats out of 4 which were protected,[17]; [22],2
same,MES screen: number of rats out of 4 which were protected,[17]; [22],2
same,MES screen 0.5 h: number of rats out of 4 which were protected,[17]; [23],4
same,MES screen: number of rats out of 4 which were protected,[17]; [23],4
same,MES screen 1 h: number of rats out of 4 which were protected,[17]; [24],4
same,MES screen: number of rats out of 4 which were protected,[17]; [24],4
same,MES screen 2 h: number of rats out of 4 which were protected,[17]; [25],4
same,MES screen: number of rats out of 4 which were protected,[17]; [25],4
same,MES screen 4 h: number of rats out of 4 which were protected,[17]; [26],4
same,MES screen: number of rats out of 4 which were protected,[17]; [26],4
same,"differences between livers from treated and control rats (liver weights, microsomal protein yields, hepatic enzyme activities)",[18],No differences
